Measurements taken from patent US20260262643A1, “HERBICIDAL BENZOXAZINES” (FMC CORPORATION, priority 2022, published 2026).

Key:
corn [1] = assay: Test C preemergence; type: in vivo, Zea mays
How it was run: (§1)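 Greenhouse herbicide screen, 10-day duration. Test chemicals in solvent/surfactant blend were sprayed onto soil at sowing (pre) or onto 2–10 cm seedlings at one to two leaves (post); injury scored visually against controls, 0 no effect to 100 complete control.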

ryegrass, Italian [2] = assay: Test C preemergence; type: in vivo, Lolium multiflorum
How it was run: as §1

ragweed [3] = assay: Test C postemergence; type: in vivo, Ambrosia artemisiifolia; conditions: 10 days, 0 to 100 scale (0 no effect, 100 complete control)
How it was run: as §1

barnyardgrass [4] = assay: Test C preemergence; type: in vivo, Echinochloa crusgalli
How it was run: as §1

soybean [5] = assay: Test C postemergence; type: in vivo, Glycine max; conditions: 10 days, 0 to 100 scale (0 no effect, 100 complete control)
How it was run: as §1

ducksalad = assay: Test D flooded paddy test; type: in vivo, Heteranthera limosa; conditions: 250 g ai/ha, applied to paddy water, visual rating after 13 to 14 days, scale 0 to 100 (0 no effect, 100 complete control)
How it was run: (§2)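 Seedlings reached the 2-leaf stage, then pots were flooded to 3 cm over the soil surface. Compound was applied into the water, depth was maintained, and plants stayed in the greenhouse 13 to 14 days before visual scoring (0–100) relative to controls.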

oat, wild [6] = assay: Test C postemergence; type: in vivo, Avena fatua; conditions: 10 days, 0 to 100 scale (0 no effect, 100 complete control)
How it was run: as §1

ryegrass, Italian [7] = assay: Test C postemergence; type: in vivo, Lolium multiflorum; conditions: 10 days, 0 to 100 scale (0 no effect, 100 complete control)
How it was run: as §1

kochia [8] = assay: Test C preemergence; type: in vivo, Bassia scoparia
How it was run: as §1

sedge, umbrella = assay: Test D flooded paddy test; type: in vivo, Cyperus difformis; conditions: 250 g ai/ha, applied to paddy water, visual rating after 13 to 14 days, scale 0 to 100 (0 no effect, 100 complete control)
How it was run: as §2

soybean [9] = assay: Test C preemergence; type: in vivo, Glycine max
How it was run: as §1

barnyardgrass [10] = assay: Test C postemergence; type: in vivo, Echinochloa crusgalli; conditions: 10 days, 0 to 100 scale (0 no effect, 100 complete control)
How it was run: as §1

foxtail, giant [11] = assay: Test C postemergence; type: in vivo, Setaria faberi; conditions: 10 days, 0 to 100 scale (0 no effect, 100 complete control)
How it was run: as §1

wheat [12] = assay: Test C postemergence; type: in vivo, Triticum aestivum; conditions: 10 days, 0 to 100 scale (0 no effect, 100 complete control)
How it was run: as §1

pigweed, palmer [13] = assay: Test C preemergence; type: in vivo, Amaranthus palmeri
How it was run: as §1

galium = assay: Test C postemergence; type: in vivo, Galium aparine; conditions: 10 days, 0 to 100 scale (0 no effect, 100 complete control)
How it was run: as §1

foxtail, giant [14] = assay: Test C preemergence; type: in vivo, Setaria faberi
How it was run: as §1

ragweed [15] = assay: Test C preemergence; type: in vivo, Ambrosia artemisiifolia
How it was run: as §1

kochia [16] = assay: Test C postemergence; type: in vivo, Bassia scoparia; conditions: 10 days, 0 to 100 scale (0 no effect, 100 complete control)
How it was run: as §1

wheat [17] = assay: Test C preemergence; type: in vivo, Triticum aestivum
How it was run: as §1

pigweed, palmer [18] = assay: Test C postemergence; type: in vivo, Amaranthus palmeri; conditions: 10 days, 0 to 100 scale (0 no effect, 100 complete control)
How it was run: as §1

rice = assay: Test D flooded paddy test; type: in vivo, Oryza sativa; conditions: 250 g ai/ha, applied to paddy water, visual rating after 13 to 14 days, scale 0 to 100 (0 no effect, 100 complete control)
How it was run: as §2

horseweed = assay: Test C postemergence; type: in vivo, Erigeron canadensis; conditions: 10 days, 0 to 100 scale (0 no effect, 100 complete control)
How it was run: as §1

blackgrass [19] = assay: Test C preemergence; type: in vivo, Alopecurus myosuroides
How it was run: as §1

oat, wild [20] = assay: Test C preemergence; type: in vivo, Avena fatua
How it was run: as §1

corn [21] = assay: Test C postemergence; type: in vivo, Zea mays; conditions: 10 days, 0 to 100 scale (0 no effect, 100 complete control)
How it was run: as §1

barnyardgrass [22] = assay: Test D flooded paddy test; type: in vivo, Echinochloa crus-galli; conditions: 250 g ai/ha, applied to paddy water, visual rating after 13 to 14 days, scale 0 to 100 (0 no effect, 100 complete control)
How it was run: as §2

blackgrass [23] = assay: Test C postemergence; type: in vivo, Alopecurus myosuroides; conditions: 10 days, 0 to 100 scale (0 no effect, 100 complete control)
How it was run: as §1

[24] = 500 g ai/ha, preemergence, 0 to 100 scale (0 no effect, 100 complete control)
[25] = Preemergence, 125 g ai/ha, 0 to 100 scale, 0 no effect, 100 complete control

`Cc1cccc2c1OC(C(F)(F)F)CN2C(=O)c1ccnc(-n2cnc(C(C)(C)C)n2)c1` (stereo not shown) [Compound 319] was tested, and the “Corn plant response rating” value (corn [1]; [24]) was 20, the “Plant response rating, Corn” value (corn [1]; [25]) was 0 and the “Ryegrass, Italian plant response rating” value (ryegrass, Italian [2]; [24]) was 100. The “Plant response rating, Ryegrass, Italian” value (ryegrass, Italian [2]; [25]) was 100, the “Plant response rating, Ragweed” value (ragweed [3]; 500 g ai/ha, postemergence) was 70 and the “Plant response rating, Ragweed” value (ragweed [3]; Postemergence, 125 g ai/ha) was 0. The “Barnyardgrass plant response rating” value (barnyardgrass [4]; [24]) was 90, the “Plant response rating, Barnyardgrass” value (barnyardgrass [4]; [25]) was 40 and the “Plant response rating, Soybean” value (soybean [5]; 500 g ai/ha, postemergence) was 100. The “Plant response rating, Soybean” value (soybean [5]; Postemergence, 125 g ai/ha) was 100, the “Plant response rating, Ducksalad (Flood)” value (ducksalad) was 0 and the “Plant response rating, Oat, Wild” value (oat, wild [6]; 500 g ai/ha, postemergence) was 30. The “Plant response rating, Oat, Wild” value (oat, wild [6]; Postemergence, 125 g ai/ha) was 0, the “Plant response rating, Ryegrass, Italian” value (ryegrass, Italian [7]; 500 g ai/ha, postemergence) was 50 and the “Plant response rating, Ryegrass, Italian” value (ryegrass, Italian [7]; Postemergence, 125 g ai/ha) was 30. The “Kochia plant response rating” value (kochia [8]; [24]) was 0, the “Plant response rating, Kochia” value (kochia [8]; [25]) was 0 and the “Plant response rating, Sedge, Umbrella (Flood)” value (sedge, umbrella) was 0. The “Soybean plant response rating” value (soybean [9]; [24]) was 100, the “Plant response rating, Soybean” value (soybean [9]; [25]) was 20 and the “Plant response rating, Barnyardgrass” value (barnyardgrass [10]; 500 g ai/ha, postemergence) was 60. The “Plant response rating, Barnyardgrass” value (barnyardgrass [10]; Postemergence, 125 g ai/ha) was 10, the “Plant response rating, Foxtail, Giant” value (foxtail, giant [11]; 500 g ai/ha, postemergence) was 80 and the “Plant response rating, Foxtail, Giant” value (foxtail, giant [11]; Postemergence, 125 g ai/ha) was 30. The “Plant response rating, Wheat” value (wheat [12]; 500 g ai/ha, postemergence) was 10, the “Plant response rating, Wheat” value (wheat [12]; Postemergence, 125 g ai/ha) was 10 and the “Pigweed, Palmer plant response rating” value (pigweed, palmer [13]; [24]) was 90. The “Plant response rating, Pigweed, Palmer” value (pigweed, palmer [13]; [25]) was 80, the “Plant response rating, Galium” value (galium; 500 g ai/ha, postemergence) was 70 and the “Plant response rating, Galium” value (galium; Postemergence, 125 g ai/ha) was 60. The “Foxtail, Giant plant response rating” value (foxtail, giant [14]; [24]) was 100, the “Plant response rating, Foxtail, Giant” value (foxtail, giant [14]; [25]) was 100 and the “Ragweed plant response rating” value (ragweed [15]; [24]) was 0. For the same compound, the “Plant response rating, Ragweed” value (ragweed [15]; [25]) was 0, the “Plant response rating, Kochia” value (kochia [16]; 500 g ai/ha, postemergence) was 90 and the “Plant response rating, Kochia” value (kochia [16]; Postemergence, 125 g ai/ha) was 40. The “Wheat plant response rating” value (wheat [17]; [24]) was 30, the “Plant response rating, Wheat” value (wheat [17]; [25]) was 0 and the “Plant response rating, Pigweed, Palmer” value (pigweed, palmer [18]; 500 g ai/ha, postemergence) was 80. The “Plant response rating, Pigweed, Palmer” value (pigweed, palmer [18]; Postemergence, 125 g ai/ha) was 30, the “Plant response rating, Rice (Flood)” value (rice) was 0 and the “Plant response rating, Horseweed” value (horseweed; 500 g ai/ha, postemergence) was 30. For the same compound, the “Plant response rating, Horseweed” value (horseweed; Postemergence, 125 g ai/ha) was 0, the “Blackgrass plant response rating” value (blackgrass [19]; [24]) was 70 and the “Plant response rating, Blackgrass” value (blackgrass [19]; [25]) was 50. The “Oat, Wild plant response rating” value (oat, wild [20]; [24]) was 40, the “Plant response rating, Oat, Wild” value (oat, wild [20]; [25]) was 20 and the “Plant response rating, Corn” value (corn [21]; 500 g ai/ha, postemergence) was 50. The “Plant response rating, Corn” value (corn [21]; Postemergence, 125 g ai/ha) was 20, the “Plant response rating, Barnyardgrass (Flood)” value (barnyardgrass [22]) was 0 and the “Plant response rating, Blackgrass” value (blackgrass [23]; 500 g ai/ha, postemergence) was 80. The “Plant response rating, Blackgrass” value (blackgrass [23]; Postemergence, 125 g ai/ha) was 10.
